From patent publication US20180325914A1, “INCREASING STORAGE OF VITAMIN A, VITAMIN D AND/OR LIPIDS” (Salk Institute for Biological Studies, priority 2014, published 2018)

System: primary HSCs

Cc1sc2c(c1C)C(c1ccc(Cl)cc1)=N[C@@H](CC(=O)OC(C)(C)C)c1nnc(C)n1-2 [JQ1, (S)-tert-butyl 2-(4-(4-chlorophenyl)-2,3,9-trimethyl-6H-thieno[3,2-f][1,2,4]triazolo[4,3-a][1,4]diazepin-6-yl)acetate]
Stk39 value_2 (Day_6_JQ1): 17.0092 | Sulf1 value_2 (Day_6_JQ1): 53.8118 | Tbxa2r value_2 (Day_6_JQ1): 1.603 | Tcea3 value_2 (Day_6_JQ1): 1.947 | Tead3 value_2 (Day_6_JQ1): 19.5802 | Thbs3 value_2 (Day_6_JQ1): 1.4249 | Timp1 value_2 (Day_6_JQ1): 296.521 | Tlcd2 value_2 (Day_6_JQ1): 7.717 | Tm7sf3 value_2 (Day_6_JQ1): 17.8846 | Tmem14a value_2 (Day_6_JQ1): 2.145 | Tmem38a value_2 (Day_6_JQ1): 9.934 | Tmem45a value_2 (Day_6_JQ1): 21.4757 | Tmem119 value_2 (Day_6_JQ1): 38.7358 | Tpm1 value_2 (Day_6_JQ1): 1441.58 | Trf value_2 (Day_6_JQ1): 73.4499 | Trim46 value_2 (Day_6_JQ1): 1.758 | Trnp1 value_2 (Day_6_JQ1): 13.5695 | Tsku value_2 (Day_6_JQ1): 19.2147 | Tspan2 value_2 (Day_6_JQ1): 2.762 | Tspan6 value_2 (Day_6_JQ1): 21.2613 | Ttc13 value_2 (Day_6_JQ1): 20.1057 | Tubb2b value_2 (Day_6_JQ1): 18.8633 | Tubb4 value_2 (Day_6_JQ1): 12.0841 | Txndc5 value_2 (Day_6_JQ1): 194.663 | Ube2c value_2 (Day_6_JQ1): 30.6226 | Unc119 value_2 (Day_6_JQ1): 15.3231 | Vash2 value_2 (Day_6_JQ1): 1.343 | Vegfa value_2 (Day_6_JQ1): 27.576 | Wee1 value_2 (Day_6_JQ1): 8.031 | Wfs1 value_2 (Day_6_JQ1): 22.9762 | Whrn value_2 (Day_6_JQ1): 4.993 | Wnt4 value_2 (Day_6_JQ1): 18.5297 | Wnt5a value_2 (Day_6_JQ1): 7.524 | Wnt9a value_2 (Day_6_JQ1): 7.671 | Ydjc value_2 (Day_6_JQ1): 1.905 | Zbtb8b value_2 (Day_6_JQ1): 2.023 | Zyx value_2 (Day_6_JQ1): 185.005 | 1190002N15Rik value_2 (gene 1190002N15Rik, mRNA-Seq, sample Day_6_JQ1): 132.567 | Aard value_2 (gene Aard, mRNA-Seq, sample Day_6_JQ1): 83.973 | Abat value_2 (gene Abat, mRNA-Seq, sample Day_6_JQ1): 35.0761 | Adamts5 value_2 (gene Adamts5, mRNA-Seq, sample Day_6_JQ1): 91.9646 | Aldh1a1 value_2 (gene Aldh1a1, mRNA-Seq, sample Day_6_JQ1): 311.654 | Arxes2 value_2 (gene Arxes2, mRNA-Seq, sample Day_6_JQ1): 27.1896 | Asf1b value_2 (gene Asf1b, mRNA-Seq, sample Day_6_JQ1): 22.9334 | Atoh8 value_2 (gene Atoh8, mRNA-Seq, sample Day_6_JQ1): 73.1716 | Barx1 value_2 (gene Barx1, mRNA-Seq, sample Day_6_JQ1): 11.4288 | Bcmo1 value_2 (gene Bcmo1, mRNA-Seq, sample Day_6_JQ1): 159.902 | Birc5 value_2 (gene Birc5, mRNA-Seq, sample Day_6_JQ1): 50.4974 | Bub1 value_2 (gene Bub1, mRNA-Seq, sample Day_6_JQ1): 8.993 | Casc4 value_2 (gene Casc4, mRNA-Seq, sample Day_6_JQ1): 36.8307 | Cd248 value_2 (gene Cd248, mRNA-Seq, sample Day_6_JQ1): 118.878 | Cdca5 value_2 (gene Cdca5, mRNA-Seq, sample Day_6_JQ1): 10.0872 | Cdon value_2 (gene Cdon, mRNA-Seq, sample Day_6_JQ1): 16.8708 | Cep55 value_2 (gene Cep55, mRNA-Seq, sample Day_6_JQ1): 13.1668 | Ckap2 value_2 (gene Ckap2, mRNA-Seq, sample Day_6_JQ1): 33.1117 | Clca1 value_2 (gene Clca1, mRNA-Seq, sample Day_6_JQ1): 52.2679 | Col14a1 value_2 (gene Col14a1, mRNA-Seq, sample Day_6_JQ1): 181.433 | Ddr1 value_2 (gene Ddr1, mRNA-Seq, sample Day_6_JQ1): 106.289 | Dzip1 value_2 (gene Dzip1, mRNA-Seq, sample Day_6_JQ1): 31.5814 | Efemp1 value_2 (gene Efemp1, mRNA-Seq, sample Day_6_JQ1): 205.387 | Egr1 value_2 (gene Egr1, mRNA-Seq, sample Day_6_JQ1): 141.166 | Emilin2 value_2 (gene Emilin2, mRNA-Seq, sample Day_6_JQ1): 88.1199 | Epha7 value_2 (gene Epha7, mRNA-Seq, sample Day_6_JQ1): 11.3808 | Fam117a value_2 (gene Fam117a, mRNA-Seq, sample Day_6_JQ1): 15.5563 | Fam123b value_2 (gene Fam123b, mRNA-Seq, sample Day_6_JQ1): 9.43 | Fam83d value_2 (gene Fam83d, mRNA-Seq, sample Day_6_JQ1): 24.1741 | Fbln1 value_2 (gene Fbln1, mRNA-Seq, sample Day_6_JQ1): 13.4635 | Fbln5 value_2 (gene Fbln5, mRNA-Seq, sample Day_6_JQ1): 79.5082 | Fgfr2 value_2 (gene Fgfr2, mRNA-Seq, sample Day_6_JQ1): 86.0077 | Fhl1 value_2 (gene Fhl1, mRNA-Seq, sample Day_6_JQ1): 503.063 | Figf value_2 (gene Figf, mRNA-Seq, sample Day_6_JQ1): 27.0541 | Gamt value_2 (gene Gamt, mRNA-Seq, sample Day_6_JQ1): 12.8445 | Gdf11 value_2 (gene Gdf11, mRNA-Seq, sample Day_6_JQ1): 22.9531 | Ghr value_2 (gene Ghr, mRNA-Seq, sample Day_6_JQ1): 60.5749 | H1fx value_2 (gene H1fx, mRNA-Seq, sample Day_6_JQ1): 50.515 | H2afx value_2 (gene H2afx, mRNA-Seq, sample Day_6_JQ1): 155.278 | H19 value_2 (gene H19, mRNA-Seq, sample Day_6_JQ1): 82.2113 | Hist1h1c value_2 (gene Hist1h1c, mRNA-Seq, sample Day_6_JQ1): 246.293 | Hmcn1 value_2 (gene Hmcn1, mRNA-Seq, sample Day_6_JQ1): 13.3966 | Hmgn3 value_2 (gene Hmgn3, mRNA-Seq, sample Day_6_JQ1): 59.5606 | Hspa2 value_2 (gene Hspa2, mRNA-Seq, sample Day_6_JQ1): 19.5751 | Igf2r value_2 (gene Igf2r, mRNA-Seq, sample Day_6_JQ1): 67.7147 | Igfbp6 value_2 (gene Igfbp6, mRNA-Seq, sample Day_6_JQ1): 52.4488 | Isyna1 value_2 (gene Isyna1, mRNA-Seq, sample Day_6_JQ1): 113.425 | Itga1 value_2 (gene Itga1, mRNA-Seq, sample Day_6_JQ1): 101.182 | Itm2a value_2 (gene Itm2a, mRNA-Seq, sample Day_6_JQ1): 59.8717 | Kif23 value_2 (gene Kif23, mRNA-Seq, sample Day_6_JQ1): 11.9374 | Kifc1 value_2 (gene Kifc1, mRNA-Seq, sample Day_6_JQ1): 15.9311 | Klhl13 value_2 (gene Klhl13, mRNA-Seq, sample Day_6_JQ1): 100 | Lama1 value_2 (gene Lama1, mRNA-Seq, sample Day_6_JQ1): 16.8277 | Lum value_2 (gene Lum, mRNA-Seq, sample Day_6_JQ1): 485.984 | Mad2l1 value_2 (gene Mad2l1, mRNA-Seq, sample Day_6_JQ1): 31.9743 | Mapk8ip1 value_2 (gene Mapk8ip1, mRNA-Seq, sample Day_6_JQ1): 16.3375 | Meis1 value_2 (gene Meis1, mRNA-Seq, sample Day_6_JQ1): 24.7836 | Mmp17 value_2 (gene Mmp17, mRNA-Seq, sample Day_6_JQ1): 25.3895 | Mxd4 value_2 (gene Mxd4, mRNA-Seq, sample Day_6_JQ1): 76.146 | Ncapd2 value_2 (gene Ncapd2, mRNA-Seq, sample Day_6_JQ1): 18.5667 | Ncapg2 value_2 (gene Ncapg2, mRNA-Seq, sample Day_6_JQ1): 11.6063 | Ncaph value_2 (gene Ncaph, mRNA-Seq, sample Day_6_JQ1): 16.1078 | Nek2 value_2 (gene Nek2, mRNA-Seq, sample Day_6_JQ1): 11.522 | Nusap1 value_2 (gene Nusap1, mRNA-Seq, sample Day_6_JQ1): 10.0613 | Pcsk6 value_2 (gene Pcsk6, mRNA-Seq, sample Day_6_JQ1): 16.0741 | Pcyox1 value_2 (gene Pcyox1, mRNA-Seq, sample Day_6_JQ1): 135.704 | Peg3 value_2 (gene Peg3, mRNA-Seq, sample Day_6_JQ1): 37.0421 | Peg10 value_2 (gene Peg10, mRNA-Seq, sample Day_6_JQ1): 121.813 | Pkia value_2 (gene Pkia, mRNA-Seq, sample Day_6_JQ1): 28.0014
